Test results: PubChem BioAssay (NCI)
Where “and” joins values, the source holds several entries; their conditions need not be identical. Equal entries are not always repeated.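 A five-concentration, 48-hour dose response in 96-well plates underlies each endpoint, interpolated linearly between surrounding concentrations. GI50: concentration for 50% inhibition of growth. TGI: concentration producing complete growth inhibition.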

Assays:
Test in all cases: NCI anticancer screen, dose series, 48 h
[1] = system: 786-0 renal
[2] = system: A498 renal
[3] = system: A549 NSCLC
[4] = system: BT-549 breast
[5] = system: CAKI-1 renal
[6] = system: COLO 205 colon
[7] = system: DU-145 prostate
[8] = system: EKVX NSCLC
[9] = system: HCT-116 colon
[10] = system: HOP-62 NSCLC
[11] = system: HS 578T breast
[12] = system: HT29 colon
[13] = system: IGROV1 ovarian
[14] = system: K-562 leukemia
[15] = system: KM12 colon
[16] = system: M14 melanoma
[17] = system: MALME-3M melanoma
[18] = system: MCF7 breast
[19] = system: MDA-MB-231 breast
[20] = system: NCI-H226 lung
[21] = system: NCI-H460 lung
[22] = system: NCI/ADR-RES ovarian
[23] = system: OVCAR-4 ovarian
[24] = system: OVCAR-5 ovarian
[25] = system: OVCAR-8 ovarian
[26] = system: PC-3 prostate
[27] = system: SF-268 CNS
[28] = system: SF-295 CNS
[29] = system: SF-539 CNS
[30] = system: SK-MEL-2 melanoma
[31] = system: SK-MEL-28 melanoma
[32] = system: SK-MEL-5 melanoma
[33] = system: SK-OV-3 ovarian
[34] = system: SN12C renal
[35] = system: SNB-19 CNS
[36] = system: SNB-75 CNS
[37] = system: SW-620 colon
[38] = system: T-47D breast
[39] = system: TK-10 renal
[40] = system: U251 CNS
[41] = system: UACC-257 melanoma
[42] = system: UACC-62 melanoma
[43] = system: UO-31 renal

## COC(=O)NC/C=C\c1nc(CC/C=C\C(=O)OC2CC3CC(=O)O[C@H](/C=C/CC(C)C)C[C@H]4CCC(C)C(C[C@H](OC)CC(C2)O3)O4)co1 (stereo partly drawn)
[1]
  GI50: < 0.01 µM
  TGI: > 100 µM
[2]
  GI50: 13.6 µM
  TGI: 57.1 µM
[3]
  GI50: < 0.01 µM
  TGI: > 100 µM
[4]
  GI50: 0.016 µM
  TGI: 2.95 µM
[5]
  GI50: < 0.01 µM
  TGI: 41.1 µM
[6]
  GI50: 1.1 µM
  TGI: > 100 µM
[7]
  GI50: 1.54 µM
  TGI: > 100 µM
[8]
  GI50: < 0.01 µM
  TGI: 4.8 µM
[9]
  GI50: < 0.01 µM
  TGI: 37.5 µM
[10]
  GI50: < 0.01 µM
  TGI: 62.7 µM
[11]
  GI50: 18.2 µM
  TGI: > 100 µM
[12]
  GI50: 0.742 µM
  TGI: > 100 µM
[13]
  GI50: 2.51 µM
  TGI: > 100 µM
[14]
  GI50: < 0.01 µM
  TGI: 20.3 µM
[15]
  GI50: 4.25 µM
  TGI: > 100 µM
[16]
  GI50: 4.27 µM
  TGI: > 100 µM
[17]
  GI50: 17.1 µM
  TGI: 45.1 µM
[18]
  GI50: < 0.01 µM
  TGI: 10.5 µM
[19]
  GI50: 11.3 µM
  TGI: > 100 µM
[20]
  GI50: 12.9 µM
  TGI: > 100 µM
[21]
  GI50: < 0.01 µM
  TGI: 63.5 µM
[22]
  GI50: 59 µM
  TGI: > 100 µM
[23]
  GI50: 23.4 µM
  TGI: > 100 µM
[24]
  GI50: 0.877 µM
  TGI: > 100 µM
[25]
  GI50: > 100 µM
  TGI: > 100 µM
[26]
  GI50: 0.218 µM
  TGI: > 100 µM
[27]
  GI50: < 0.01 µM
  TGI: 24.3 µM
[28]
  GI50: < 0.01 µM
  TGI: 61.5 µM
[29]
  GI50: < 0.01 µM
  TGI: 0.114 µM
[30]
  GI50: 20.2 µM
  TGI: > 100 µM
[31]
  GI50: 12.1 µM
  TGI: > 100 µM
[32]
  GI50: < 0.01 µM
  TGI: 19.3 µM
[33]
  GI50: 63.9 µM
  TGI: > 100 µM
[34]
  GI50: < 0.01 µM
  TGI: 28.8 µM
[35]
  GI50: 23 µM
  TGI: > 100 µM
[36]
  GI50: 32.5 µM
  TGI: > 100 µM
[37]
  GI50: < 0.01 µM
  TGI: > 100 µM
[38]
  GI50: 39.1 µM
  TGI: > 100 µM
[39]
  GI50: 1.55 µM
  TGI: 74 µM
[40]
  GI50: 1.42 µM
  TGI: > 100 µM
[41]
  GI50: > 100 µM
  TGI: > 100 µM
[42]
  GI50: 0.0635 µM
  TGI: > 100 µM
[43]
  GI50: 25.4 µM
  TGI: > 100 µM

## c1ccc2c(c1)[nH]c1c2nc2sccn21
[36]
  GI50: 20.6 µM and 44.8 µM
  TGI: > 100 µM
